Test results reported in patent US8415342B2, “Besifloxacin ophthalmic composition for the treatment or control of infection” (Bausch & Lomb Incorporated, priority 2008, dated 2013).
Values after ≈ are worked out from the molar mass of the structure shown. Where two headings read alike, the source gives them in different places.

Tests used:
Assay type in all cases: cell-based
[1] = test system: S. pneumoniae topoisomerase mutants; assay: MIC against defined topoisomerase mutants; conditions: Streptococcus pneumoniae
[2] = test system: baseline pathogens of bacterial conjunctivitis patients; assay: MIC of baseline clinical trial isolates, Studies 373, 433, 434 (all species)
[3] = test system: Pathogens Associated With Bacterial Conjunctivitis; assay: Integrated besifloxacin MIC data from preclinical (nonclinical) studies (Table 8)
[4] = 1324 clinical isolates of all species, Studies 373, 433, 434
[5] = Gram-negative bacteria (438 clinical isolates)
[6] = Gram-positive bacteria (886 clinical isolates)
[7] = Clostridium perfringens, N 21, agar dilution

N[C@@H]1CCCCN(c2c(F)cc3c(=O)c(C(=O)O)cn(C4CC4)c3c2Cl)C1 [Besifloxacin, (R)-(+)-(3-amino-2,3,4,5,6,7-hexahydro-1H-azepin-1-yl)-8-chloro-1-cyclopropyl-6-fluoro-1,4,-dihydro-4-oxo-3-quinolinecarboxylic acid]
MIC ([1]; S. pneumoniae Wild type): 0.12 mg/L (≈ 0.305 µM) | MIC ([1]; S. pneumoniae gyrA S81F): 0.5 mg/L (≈ 1.27 µM) | MIC ([1]; S. pneumoniae parC S79Y): 0.25 mg/L (≈ 0.635 µM) | MIC ([1]; S. pneumoniae parC S79Y + gyrA S81F): 1 mg/L | MIC50 [2, 4]: 0.06 mg/L | MIC90 [2, 4]: 0.25 mg/L | MIC50 [2, 5]: 0.03 mg/L | MIC90 [2, 5]: 0.5 mg/L | MIC50 [2, 6]: 0.06 mg/L | MIC90 [2, 6]: 0.25 mg/L | MIC90 ([2]; clinical isolates from Asia): 1 mg/L | MIC50 ([3]; Acinetobacter baumannii, Acinetobacter baumanii Quinolone-R, N 5, read-out: MIC50): > 8 mg/L | MIC50 ([3]; Acinetobacter baumannii, Acinetobacter baumanii Quinolone-S, N 43, read-out: MIC50): 0.5 mg/L (≈ 1.27 µM) | MIC90 ([3]; Acinetobacter baumannii, Acinetobacter baumanii Quinolone-S, N 43, read-out: MIC90): 2 mg/L (≈ 5.08 µM) | MIC50 ([3]; Acinetobacter baumannii-calcoaceticus Quinolone-R, N 10, read-out: MIC50): > 8 mg/L | MIC90 ([3]; Acinetobacter baumannii-calcoaceticus Quinolone-R, N 10, read-out: MIC90): > 8 mg/L | MIC Range ([3]; Acinetobacter baumannii-calcoaceticus Quinolone-S, N 23): 0.12 to 4 mg/L | MIC50 ([3]; Acinetobacter baumannii-calcoaceticus Quinolone-S, N 23, read-out: MIC50): 0.5 mg/L (≈ 1.27 µM) | MIC Range ([3]; Acinetobacter lwoffii, N 13): 0.12 to 2 mg/L | MIC50 ([3]; Acinetobacter lwoffii, N 13, read-out: MIC50): 0.5 mg/L (≈ 1.27 µM) | MIC90 ([3]; Acinetobacter lwoffii, N 13, read-out: MIC90): 0.5 mg/L (≈ 1.27 µM) | MIC50 ([3]; Bacteroides fragilis, N 20, agar dilution, read-out: MIC50): 0.5 mg/L (≈ 1.27 µM) | MIC90 ([3]; Bacteroides fragilis, N 20, agar dilution, read-out: MIC90): 1 mg/L (≈ 2.54 µM) | MIC Range ([3]; Citrobacter koser Quinolone-R, N 1): >8 mg/L | MIC Range ([3]; Citrobacter koser Quinolone-S, N 99): 0.03 to 4 mg/L | MIC90 ([3]; Citrobacter koser Quinolone-S, N 99, read-out: MIC90): 0.25 mg/L (≈ 0.635 µM) | MIC50 [3, 7]: 0.25 mg/L (≈ 0.635 µM) | MIC90 [3, 7]: 0.25 mg/L (≈ 0.635 µM) | MIC Range [3, 7]: 0.12 to 0.25 mg/L | MIC Range ([3]; Corynebacterium species, N 30, agar dilution): ≦0.06-2 μg/mL | MIC50 ([3]; Corynebacterium species, N 30, agar dilution, read-out: MIC50): 0.25 mg/L (≈ 0.635 µM) | MIC90 ([3]; Corynebacterium species, N 30, agar dilution, read-out: MIC90): 2 mg/L (≈ 5.08 µM) | MIC50 ([3]; Cutibacterium acnes, Propionibacterium acnes, N 21, agar dilution, read-out: MIC50): 0.25 mg/L (≈ 0.635 µM) | MIC90 ([3]; Cutibacterium acnes, Propionibacterium acnes, N 21, agar dilution, read-out: MIC90): 0.25 mg/L (≈ 0.635 µM) | MIC Range ([3]; Enterobacter aerogene Quinolone-S, N 37): 0.12 to 4 mg/L | MIC50 ([3]; Enterobacter aerogene Quinolone-S, N 37, read-out: MIC50): 0.25 mg/L (≈ 0.635 µM) | MIC90 ([3]; Enterobacter aerogene Quinolone-S, N 37, read-out: MIC90): 2 mg/L (≈ 5.08 µM) | MIC Range ([3]; Enterobacter cloacae Quinolone-R, N 1): >8 mg/L | MIC Range ([3]; Enterobacter cloacae Quinolone-S, N 58): 0.12 to 2 mg/L | MIC50 ([3]; Enterobacter cloacae, Enterobacter cloacae Quinolone-S, N 58, read-out: MIC50): 0.25 mg/L (≈ 0.635 µM) | MIC90 ([3]; Enterobacter cloacae, Enterobacter cloacae Quinolone-S, N 58, read-out: MIC90): 0.5 mg/L (≈ 1.27 µM) | MIC Range ([3]; Fusobacterium species, N 21, agar dilution): 0.12 to 8 mg/L | MIC50 ([3]; Fusobacterium species, N 21, agar dilution, read-out: MIC50): 0.25 mg/L (≈ 0.635 µM) | MIC90 ([3]; H. influenzae, value used for PK/PD ratios of Study 424): ^bMIC90: H. influenzae ≦0.06 μg/mL. | MIC Range ([3]; Haemophilus influenzae (all phenotypes), N 243): ≦0.004-0.25 μg/mL | MIC Range ([3]; Haemophilus influenzae β-lactamase+, N 118): 0.008 to 0.12 mg/L | MIC Range ([3]; Haemophilus influenzae β-lactamase−, N 100): ≦0.004-0.12 μg/mL | MIC90 ([3]; Haemophilus influenzae, H. influenzae, value used for PK/PD ratios of Study 424, read-out: MIC90): ≤ 0.06 mg/L | MIC50 ([3]; Haemophilus influenzae, Haemophilus influenzae (all phenotypes), N 243, read-out: MIC50): 0.03 mg/L (≈ 0.0762 µM) | MIC50 ([3]; Haemophilus influenzae, Haemophilus influenzae β-lactamase+, N 118, read-out: MIC50): 0.03 mg/L (≈ 0.0762 µM) | MIC50 ([3]; Haemophilus influenzae, Haemophilus influenzae β-lactamase− Ampicillin-R, N 25, read-out: MIC50): 0.12 mg/L (≈ 0.305 µM) | MIC90 ([3]; Haemophilus influenzae, Haemophilus influenzae β-lactamase− Ampicillin-R, N 25, read-out: MIC90): 0.25 mg/L (≈ 0.635 µM) | MIC50 ([3]; Haemophilus influenzae, Haemophilus influenzae β-lactamase−, N 100, read-out: MIC50): 0.03 mg/L (≈ 0.0762 µM) | MIC Range ([3]; Key Organisms Quinolone-S, N 894): ≦0.004-1 μg/mL | MIC50 ([3]; Key Organisms Quinolone-S, N 894, read-out: MIC50): 0.06 mg/L (≈ 0.152 µM) | MIC90 ([3]; Key Organisms Quinolone-S, N 894, read-out: MIC90): 0.12 mg/L (≈ 0.305 µM) | MIC50 ([3]; Key Organisms combined, N 1205): 0.06 mg/L | MIC90 ([3]; Key Organisms combined, N 1205, read-out: MIC90): 1 mg/L | MIC Range ([3]; Klebsiella oxytoca Quinolone-R, N 5): 1 to 8 mg/L | MIC50 ([3]; Klebsiella oxytoca Quinolone-R, N 5, read-out: MIC50): 8 mg/L (≈ 20.3 µM) | MIC Range ([3]; Klebsiella oxytoca Quinolone-S, N 45): 0.06 to 1 mg/L | MIC90 ([3]; Klebsiella oxytoca, Klebsiella oxytoca Quinolone-S, N 45, read-out: MIC90): 0.5 mg/L (≈ 1.27 µM) | MIC50 ([3]; Legionella pneumophila, N 50): 0.03 mg/L (≈ 0.0762 µM) | MIC90 ([3]; Legionella pneumophila, N 50): 0.03 mg/L (≈ 0.0762 µM) | MIC Range ([3]; Legionella pneumophila, N 50): 0.015 to 0.06 mg/L | MIC50 ([3]; Moraxella catarrhalis, N 201, read-out: MIC50): 0.06 mg/L (≈ 0.152 µM) | MIC90 ([3]; Moraxella catarrhalis, N 201, read-out: MIC90): 0.12 mg/L (≈ 0.305 µM)
